The values below come from paper PMC8047011, “Enantiomers of 2-methylglutamate and 2-methylglutamine selectively impact mouse brain metabolism and behavior” (Scientific Reports, 2021).

The structures appear in SMILES notation.

Data set [1] deals with human glutamine synthetase (Homo sapiens, UniProt P15104). Further details: method as in PMID 5320388. Particulars: identical conditions with L-Glu; cited from earlier work.
Data set [2] deals with mouse cerebral synaptosomes. The data set is described as follows: Metabolism in synaptosomes (GABA shunt, glutamate-glutamine cycle). The format is in vitro ADME. Particulars: synaptosomes preloaded with 100 μM substrate. As to the method:
(§1) To each tube, a 5 μL aliquot of a test compound solution (final concentration 100 μM) in Buffer KRP or Buffer KRP alone were added. The samples were incubated for 15 min at 37 °C, briefly chilled on ice, and then immediately centrifuged and washed twice by resuspension-centrifugation with Buffer S (0.5 mL). The pellets were then resuspended in Buffer KRP (500 μL). Samples were then immediately centrifuged or incubated for 5, 10, 15, 20, 25 or 30 min at 37 °C and then centrifuged and washed by resuspension-centrifugation with Buffer S (0.5 mL). Resulting pellets were resuspended in 170 μL of 0.1% aqueous formic acid, mixed with 330 μL of ACN. To each tube, 5 μL of 2MeGlu solution (final concentration 100 μM) in Buffer KRP or Buffer KRP alone were added. The samples were incubated for 15 min at 37 °C, briefly chilled on ice, and then immediately centrifuged and washed twice by resuspension-centrifugation with Buffer S (0.5 mL). The pellets were then resuspended in Buffer KRP (200 μL). Samples were then kept on ice or incubated for 10, 20, 30, 40 or 50 min at 37 °C and then chilled on ice. Then all samples were centrifuged, 200 μL of supernatants were collected, and the pellets were suspended in 200 μL of 80% ACN. Supernatants and pellet suspensions were diluted with 250 μL of ACN and 50 μL of 10 μM d[…] in water as internal standard.

Assay in data set [3]: as above
The class given is in vitro ADME, mouse. Particulars: mouse, mouse cerebral synaptosomes; synaptosomes preloaded with 100 μM substrate, 37 °C; estimated; read-out: Synaptosomal concentration half life. As to the method:
as §1

In data set [4] the test system is mouse cerebral synaptosomes. The data set can be described thus: Synaptosomal neurotransmitter uptake assay. The format is cell-based. Conditions: 10 μM substrate, 37 °C. As to the method: Mouse cerebral synaptosomes were prepared according to published methods. See Supplementary Methods for details. 500 μL aliquots of the synaptosome suspension were transferred to pre-chilled microcentrifuge tubes for experiments. Centrifugations were at 8000g for 4 min at 4 °C, unless stated otherwise, and all samples were stored at − 80 °C.
To each tube, 5 μL of a test compound solution (final concentration 10 μM) in Buffer KRP or Buffer KRP alone were added. Samples were incubated at 4 °C or 37 °C for 1, 10, or 30 min and then immediately centrifuged and washed twice by resuspension–centrifugation with Buffer S (0.5 mL). Resulting pellets were resuspended in 170 μL of 0.1% aqueous formic acid and mixed with 330 μL of ACN.
Buffer S (4 mL, × 1) and Buffer KRP (2 mL, × 3). The resulting pellet was resuspended in 3 mL of Buffer KRP and filtered on Ultrafree-CL 5 μm PVDF centrifugal device (1,000g for 4 min at 4 °C). The filtrate was diluted to 15 mL with ice cold Buffer KRP and kept on ice. The synaptosome preparation was used immediately in the following experiments.
Synaptosomal neurotransmitter uptake assay
96-well plate experiments: 250 μL aliquots of the synaptosome suspension were transferred to two 0.8-mL 96 well plates, one on ice (0 °C samples only) and one in a thermoblock (37 °C samples only), and equilibrated for 10 min. 5 μL of a test compound (0.5 mM; final concentration: 10 μM) in Buffer KRP or Buffer KRP blank were added 10, 20 or 30 min before the incubation termination. “0 min” samples were prepared by placing the test compound solution in a separate pre-chilled V-shape bottom 2-mL 96 well plate; at the end of incubation 200 μL aliquots of all samples were transferred to the 2-mL 96 well plate and centrifuged (2,500g for 15 min at 4 °C) immediately. The resulting pellets were rinsed with Buffer KRP, followed by centrifugation, twice, then resuspended in 200 μL of 60% ACN containing 2.5 μM Glu-d5 as internal standard and stored at –80 °C until analysis. […]

The subject of data set [5] is mouse cerebral synaptosomes. The data set can be described thus: Potassium-induced neurotransmitter release assay. The format is cell-based. Conditions: preincubated with 100 μM substrate 15 min 37 °C; high-potassium KRP buffer. As to the method: To each tube, 2.5 μL of a test compound solution (final concentration 100 μM) in Buffer KRP or Buffer KRP alone were added. Samples were incubated for 15 min at 37 °C, briefly chilled on ice, and then immediately centrifuged and washed twice with Buffer KRP. The resulting pellets were then resuspended in either Buffer KRP (500 μL) or Buffer K-KRP (500 μL). Samples were immediately centrifuged or incubated for 5, 10 or 15 min at 37 °C, then centrifuged and washed with Buffer KRP. Resulting pellets were resuspended in 400 μL of 60% ACN containing 2.5 μM Glu-d5 and 2.5 μM Gln-d5 as internal standards.

Data set [6] has as its target T1, human glutaminase GLS1 (Homo sapiens, UniProt O94925).
T1 sequence (O94925 55-669): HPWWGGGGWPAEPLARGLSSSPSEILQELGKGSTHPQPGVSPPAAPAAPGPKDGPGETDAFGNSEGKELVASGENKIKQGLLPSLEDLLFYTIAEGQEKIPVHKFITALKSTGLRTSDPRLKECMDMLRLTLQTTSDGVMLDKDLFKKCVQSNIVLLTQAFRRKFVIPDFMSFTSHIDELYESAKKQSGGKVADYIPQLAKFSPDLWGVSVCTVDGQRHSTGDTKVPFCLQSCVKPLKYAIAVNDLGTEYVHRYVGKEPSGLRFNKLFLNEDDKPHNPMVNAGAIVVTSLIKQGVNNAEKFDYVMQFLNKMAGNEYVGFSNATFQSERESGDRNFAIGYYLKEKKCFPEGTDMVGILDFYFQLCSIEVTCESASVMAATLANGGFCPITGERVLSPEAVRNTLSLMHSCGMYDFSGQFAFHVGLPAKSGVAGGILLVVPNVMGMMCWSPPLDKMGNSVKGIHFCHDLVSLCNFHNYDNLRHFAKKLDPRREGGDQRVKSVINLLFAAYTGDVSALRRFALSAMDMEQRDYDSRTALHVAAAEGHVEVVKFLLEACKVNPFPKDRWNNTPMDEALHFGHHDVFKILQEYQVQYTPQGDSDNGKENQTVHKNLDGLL
The data set can be described thus: Catalysis of 2MeGln hydrolysis by GLS1 glutaminase. The format is biochemical. How it is done:
The procedure was adapted from an existing protocol. To a reaction mixture in a 1.5 mL microcentrifuge tube containing 10 mM rac-2MeGln or L-Gln-^13C2 in 100 mM phosphate pH 7.4 buffer made in 20% atom ^18O water, recombinant GLS1 (final concentration: 5 ng/mL) was added. The tubes were incubated in a preheated thermomixer at 37 °C and periodically shaken at 600 rpm (30 s on, 30 s off). 5 μL aliquots were collected in triplicate every 5 min and immediately diluted with 195 μL of cold 60% ACN containing 10 μM Glu-d5 and Gln-d5 as internal standards in a 96 well plate. After collecting all samples, the plate was shaken at 1000 rpm for 5 min at room temperature, and then stored at − 80 °C. Before analysis the plate was thawed and 10 μL aliquots of the extracted reaction mixtures were diluted with 190 μL of 90% acetonitrile.
The quantification of the newly formed 2MeGlu in the presence of the preexisting trace amounts was performed in the following way. Peak area ratio of Glu-^13C2 to Glu-^13C2^18O was calculated in all samples containing Glu-^13C2. The mean ratio value was then applied to calculate the hypothetical peak area of the newly formed 2MeGlu based on the directly measured 2MeGlu-^18O peak area. The ratio of the newly formed 2MeGlu peak area and the total 2MeGlu peak area was applied to calculate the concentration of the newly formed 2MeGlu from the total 2MeGlu concentration determined directly using the calibration curve.

Data set [7] concerns murine primary cerebral cortical neuron cultures. The data set can be described thus: Neuronal transport and metabolism of 2MeGln. The class given is cell-based, mouse. Conditions: 1 mM substrate, 2 h, 37 °C; data not shown. As to the method:
The procedure was adapted from an existing protocol. Wild-type (WT) C57BL/6J mating pairs were housed according to Stanford IACUC protocol. On day P0, pups were euthanized and brains dissected in cold HBSS (without Ca^2+ or Mg^2+). The forebrain was microdissected to isolate the cortex and hippocampus. These brain regions were minced in cold HBSS before trypsinization at 37 °C for 9 min, followed by trituration, through 2 glass polished Pasteur pipettes. The resulting cell suspension was passed through a 100 μm filter to isolate single cells which were sedimented at 250g for 5 min. The cell pellet was then resuspended in complete Neural Basal Media (Neural Basal Media + Glutamax + B-27 Plus Supplement + Pen/Strep) + 10%FBS, counted using a hemocytometer and plated at 1 × 10^6 cells per mL into a 24 well plate (1 mL per well) coated with poly-D-lysine and laminin. Cultures were grown at 37 °C/5% CO2 in a tissue culture incubator. Media was exchanged 50% on day 1 in vitro (1DIV) with fresh complete Neural Basal Media without FBS and thereafter every other day with the same media. On 3DIV the media was spiked with 2 μM AraC to limit glial growth. On 10DIV the media was completely replaced with 500 μL Neural Basal Media containing B-27 Plus Supplement + Pen/Strep without added Glutamax but instead containing 1 mM substrate at 37 °C for 2 h. […]

The subject of data set [8] is primary murine cerebral astrocytes. The data set can be described thus: Astrocyte transport and metabolism of 2MeGlu. The format is cell-based, mouse. Particulars: 1 mM substrate, 2 h, 37 °C. As to the method: Primary astrocytes from C57Bl/6 mouse brain were cultured in complete astrocyte growth medium at 37 °C at 5% CO2 on 96 well plates. Cells were exposed to 1 mM compound in 100 μL medium for 2 h at 37 °C. Supernatants were collected, centrifuged at 2500g for 10 min at 4 °C. 10 μL aliquots were diluted with 190 μL 60% ACN containing 10 μM Glu-d5 and Gln-d5. Cells were quickly washed with 250 μL cold PBS twice and suspended in 200 μL of 60% ACN containing 10 μM Glu-d5 and Gln-d5. All samples were shaken at 1000 rpm for 5 min and then stored at – 80 °C.

Sequence of human glutamine synthetase (P15104 whole entry): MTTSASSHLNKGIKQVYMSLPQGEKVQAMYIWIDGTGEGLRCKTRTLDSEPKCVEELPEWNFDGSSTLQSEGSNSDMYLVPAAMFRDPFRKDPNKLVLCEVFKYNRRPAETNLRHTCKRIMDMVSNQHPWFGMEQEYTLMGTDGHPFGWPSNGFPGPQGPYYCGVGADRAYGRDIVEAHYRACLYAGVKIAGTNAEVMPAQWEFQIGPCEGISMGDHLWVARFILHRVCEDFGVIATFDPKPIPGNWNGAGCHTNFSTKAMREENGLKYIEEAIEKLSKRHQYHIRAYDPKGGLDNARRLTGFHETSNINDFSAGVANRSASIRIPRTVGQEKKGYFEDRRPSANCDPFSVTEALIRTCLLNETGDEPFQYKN

In the case of `CC(N)(CCC(=O)O)C(=O)O` (racemic) [rac-2MeGlu, 2-methylglutamate], the “Inorganic phosphate released with GS and ATP relative to L-Glu” value in data set [1] is listed as 50%. In addition, the “Metabolism along the GABA shunt in synaptosomes” value in data set [2] was “not associated with the concurrent appearance of 4APA or any other 2Me analogue within the GABA shunt”. For the same compound, the half-life at 100 μM in data set [3] is 21 min.

In the case of `CC(N)CCC(=O)O` (racemic) [rac-4APA, 4-aminopentanoic acid], the Transport into synaptosomes entry in data set [4] is “transported into synaptosomes”. The “Potassium-induced release from preloaded synaptosomes” value in data set [5] was “exhibited high potassium concentration-dependent release”.

As for `C[C@](N)(CCC(N)=O)C(=O)O` [(S)-2MeGln, (S)-2-methylglutamine], the “Substrate for GLS1” value in data set [6] is “substrates of GS and GLS1, respectively”.

With `NC(=O)CC[C@H](N)C(=O)O` [Gln, L-glutamine, reference compound], in data set [6] (10 mM substrate, 5 ng/mL enzyme, phosphate pH 7.4), the “Apparent reaction rate of GLS1 hydrolysis” value worked out at 65 µM/min.

With `NC(=O)CC[13C@H](N)[13C](=O)O` [L-[1,2-^13C]Gln], in data set [7], the “Intracellular [1,2-13C]Gln relative to 2MeGln in neurons” value is “twofold lower” and the “Intracellular [1,2-13C]Glu relative to 2MeGlu in neurons” value is “over fivefold lower”.

In the case of `N[C@@H](CCC(=O)O)C(=O)O` [L-[1,2-^13C]Glu, reference compound], in data set [8], the “Extracellular concentration of amide product (2MeGln or [1,2-13C]Gln), astrocyte cultures” value is recorded as 5.0 nmol/well and the “Intracellular concentration of amide product (2MeGln or [1,2-13C]Gln) in astrocytes” value came to 0.26 nmol/well.
